From PubChem BioAssay (NCI)
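Results reflect a 48-hour exposure of cells in 96-well plates to compound at five concentrations. GI50 marks 50% less growth. Definition used: TGI = concentration required for complete inhibition of growth.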

Columns and labels:
Experiment in all cases: DTP human tumour cell line panel, 48 h
[1] = test system: SNB-75 CNS
[2] = test system: KM12 colon
[3] = test system: U251 CNS
[4] = test system: EKVX NSCLC
[5] = test system: TK-10 renal
[6] = test system: SF-539 CNS
[7] = test system: MDA-MB-231 breast
[8] = test system: HCT-15 colon
[9] = test system: HCT-116 colon
[10] = test system: OVCAR-3 ovarian
[11] = test system: NCI-H226 lung
[12] = test system: SNB-19 CNS
[13] = test system: DU-145 prostate
[14] = test system: PC-3 prostate
[15] = test system: MDA-N
[16] = test system: M14 melanoma
[17] = test system: HT29 colon
[18] = test system: SK-MEL-5 melanoma
[19] = test system: OVCAR-5 ovarian
[20] = test system: OVCAR-4 ovarian
[21] = test system: OVCAR-8 ovarian
[22] = test system: SF-268 CNS
[23] = test system: SN12C renal
[24] = test system: ACHN renal
[25] = test system: HOP-92 NSCLC
[26] = test system: CAKI-1 renal
[27] = test system: COLO 205 colon
[28] = test system: NCI/ADR-RES ovarian
[29] = test system: RXF 393 renal
[30] = test system: MDA-MB-435
[31] = test system: SK-MEL-28 melanoma
[32] = test system: SW-620 colon
[33] = test system: SF-295 CNS
[34] = test system: NCI-H23 lung
[35] = test system: A549 NSCLC
[36] = test system: IGROV1 ovarian
[37] = test system: HOP-62 NSCLC
[38] = test system: UO-31 renal
[39] = test system: A498 renal
[40] = test system: NCI-H522 lung
[41] = test system: UACC-257 melanoma
[42] = test system: BT-549 breast
[43] = test system: 786-0 renal
[44] = test system: LOX IMVI melanoma
[45] = test system: T-47D breast
[46] = test system: NCI-H460 lung
[47] = test system: RPMI-8226 leukemia
[48] = test system: K-562 leukemia
[49] = test system: MALME-3M melanoma
[50] = test system: HS 578T breast
[51] = test system: HCC-2998 colon
[52] = test system: HL-60(TB) leukemia
[53] = test system: SK-OV-3 ovarian
[54] = test system: MOLT-4 leukemia
[55] = test system: SR leukemia
[56] = test system: MCF7 breast
[57] = test system: SK-MEL-2 melanoma
[58] = test system: UACC-62 melanoma
[59] = test system: CCRF-CEM leukemia

## CCC1=[N+]([O-])C(C)(C)NC1(C)C
[1]
  TGI: > 10 µM
[2]
  TGI: > 10 µM
[3]
  TGI: > 10 µM
[4]
  TGI: > 10 µM
[5]
  TGI: > 10 µM
[6]
  TGI: > 10 µM
[7]
  TGI: > 10 µM
[8]
  TGI: > 10 µM
[9]
  TGI: > 10 µM
[10]
  TGI: > 10 µM
[11]
  TGI: > 10 µM
[12]
  TGI: > 10 µM
[13]
  TGI: > 10 µM
[14]
  TGI: > 10 µM
[15]
  TGI: > 10 µM
[16]
  TGI: > 10 µM
[17]
  TGI: > 10 µM
[18]
  TGI: > 10 µM
[19]
  TGI: > 10 µM
[20]
  TGI: > 10 µM
[21]
  TGI: > 10 µM
[22]
  TGI: > 10 µM
[23]
  TGI: > 10 µM
[24]
  TGI: > 10 µM
[25]
  TGI: > 10 µM
[26]
  TGI: > 10 µM
[27]
  TGI: > 10 µM
[28]
  TGI: > 10 µM
[29]
  TGI: > 10 µM
[30]
  TGI: > 10 µM
[31]
  TGI: > 10 µM
[32]
  TGI: > 10 µM
[33]
  TGI: > 10 µM
[34]
  TGI: > 10 µM
[35]
  TGI: > 10 µM
[36]
  TGI: > 10 µM

## Clc1ccc2c(NCCNc3nc(N4CCCC4)nc4ccccc34)ccnc2c1
[1]
  GI50: 1.37 µM
  TGI: 3 µM
[2]
  GI50: 1.02 µM
  TGI: 2.46 µM
[37]
  GI50: 1.49 µM
  TGI: 3.49 µM
[38]
  GI50: 1.26 µM
  TGI: 2.51 µM
[3]
  GI50: 1.49 µM
  TGI: 3.15 µM
[4]
  GI50: 2.08 µM
  TGI: 7.65 µM
[39]
  GI50: 1.8 µM
  TGI: 3.4 µM
[40]
  GI50: 1.36 µM
  TGI: 3.1 µM
[5]
  GI50: 2.07 µM
  TGI: 4.2 µM
[41]
  GI50: 1.96 µM
  TGI: 3.76 µM
[6]
  GI50: 1.76 µM
  TGI: 3.25 µM
[7]
  GI50: 0.811 µM
  TGI: 2.24 µM
[8]
  GI50: 0.254 µM
  TGI: 2.92 µM
[42]
  GI50: 2.01 µM
  TGI: 4.98 µM
[43]
  GI50: 1.17 µM
  TGI: 3.18 µM
[9]
  GI50: 0.309 µM
  TGI: 1.02 µM
[44]
  GI50: 0.863 µM
  TGI: 2.34 µM
[45]
  GI50: 1.6 µM
  TGI: 3.99 µM
[10]
  GI50: 0.492 µM
  TGI: 1.07 µM
[11]
  GI50: 1.95 µM
  TGI: 4.06 µM
[12]
  GI50: 1.6 µM
  TGI: 5.62 µM
[13]
  GI50: 1.17 µM
  TGI: 2.73 µM
[14]
  GI50: 1.71 µM
  TGI: 8.73 µM
[46]
  GI50: 0.22 µM
  TGI: 0.506 µM
[47]
  GI50: 1.76 µM
  TGI: 4.96 µM
[48]
  GI50: 0.118 µM
  TGI: 3.29 µM
[49]
  GI50: 1.91 µM
  TGI: 3.6 µM
[50]
  GI50: 2.34 µM
  TGI: 7 µM
[16]
  GI50: 0.935 µM
  TGI: 2.76 µM
[17]
  GI50: 0.0943 µM
  TGI: 1.39 µM
[18]
  GI50: 1.64 µM
  TGI: 3.02 µM
[19]
  GI50: 2.15 µM
  TGI: 6.38 µM
[20]
  GI50: 1.28 µM
  TGI: 3.58 µM
[21]
  GI50: 1.65 µM
  TGI: 4.12 µM
[51]
  GI50: 1.78 µM
  TGI: 4.37 µM
[22]
  GI50: 1.59 µM
  TGI: 5.41 µM
[23]
  GI50: 1.16 µM
  TGI: 3.3 µM
[24]
  GI50: 1.64 µM
  TGI: 3 µM
[25]
  GI50: 1.23 µM
  TGI: 2.66 µM
[52]
  GI50: 0.704 µM
  TGI: 1.54 µM
[27]
  GI50: 0.147 µM
  TGI: 1.94 µM
[28]
  GI50: 2.78 µM
  TGI: 11.1 µM
[53]
  GI50: 1.71 µM
  TGI: 3.16 µM
[29]
  GI50: 1.23 µM
  TGI: 2.63 µM
[30]
  GI50: 1.6 µM
  TGI: 3.11 µM
[31]
  GI50: 1.84 µM
  TGI: 3.55 µM
[54]
  GI50: 0.538 µM
  TGI: 5.1 µM
[55]
  GI50: 0.365 µM
  TGI: 2.36 µM
[32]
  GI50: 0.1 µM
  TGI: 1.45 µM
[33]
  GI50: 1.47 µM
  TGI: 2.88 µM
[56]
  GI50: 0.156 µM
  TGI: 3.86 µM
[57]
  GI50: 1.86 µM
  TGI: 3.85 µM
[58]
  GI50: 1.8 µM
  TGI: 3.5 µM
[34]
  GI50: 2.05 µM
  TGI: 5.22 µM
[35]
  GI50: 0.29 µM
  TGI: 2.54 µM
[36]
  GI50: 1.65 µM
  TGI: 4.6 µM
[59]
  GI50: 0.457 µM
  TGI: > 100 µM

## COc1ccc2c(c1)CC[C@@H]1[C@@H]2CC[C@]2(C)C(=O)/C(=C/c3ccc(O)c(OC)c3)C[C@@H]12
[37]
  TGI: > 100 µM
[38]
  TGI: > 100 µM
[3]
  TGI: > 100 µM
[4]
  TGI: > 100 µM
[39]
  TGI: > 100 µM
[5]
  TGI: > 100 µM
[41]
  TGI: > 100 µM
[7]
  TGI: > 100 µM
[8]
  TGI: 72.6 µM
[44]
  TGI: > 100 µM
[45]
  TGI: > 100 µM
[10]
  TGI: > 100 µM
[11]
  TGI: > 100 µM
[12]
  TGI: > 100 µM
[13]
  TGI: > 100 µM
[14]
  TGI: > 100 µM
[46]
  TGI: > 100 µM
[47]
  TGI: > 100 µM
[48]
  TGI: > 100 µM
[15]
  TGI: > 100 µM
[16]
  TGI: > 100 µM
[17]
  TGI: > 100 µM
[18]
  TGI: > 100 µM
[19]
  TGI: > 100 µM
[20]
  TGI: > 100 µM
[21]
  TGI: > 100 µM
[51]
  TGI: 75.5 µM
[24]
  TGI: > 100 µM
[25]
  TGI: > 100 µM
[52]
  TGI: > 100 µM
[26]
  TGI: > 100 µM
[27]
  TGI: > 100 µM
[28]
  TGI: > 100 µM
[53]
  TGI: > 100 µM
[29]
  TGI: > 100 µM
[30]
  TGI: > 100 µM
[31]
  TGI: > 100 µM
[54]
  TGI: 92.1 µM
[55]
  TGI: > 100 µM
[32]
  TGI: > 100 µM
[33]
  TGI: > 100 µM
[56]
  TGI: > 100 µM
[57]
  TGI: > 100 µM
[58]
  TGI: > 100 µM
[34]
  TGI: > 100 µM
[35]
  TGI: > 100 µM
[36]
  TGI: > 100 µM
[59]
  TGI: > 100 µM
